Experimental findings from US20250163104A1, “MACROCYCLIC IMMUNOMODULATORS” (priority 2021, published 2025) are described below.

For this assay, the target named is T1, human PD-1 / PD-L1-Ig binding on Jurkat cell line over-expressing human PD-1 (Jurkat-PD-1) (Homo sapiens, UniProt Q15116).
T1 construct: expressed in transfected cells; host or cells: Jurkat
The assay can be described thus: Jurkat-PD-1 Cell Binding High-Content Screening Assay (CBA). It counts as cell-based. An outline of the steps:
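PE-PD-L1-Ig 20 nM final; cells in DMEM/10% FCS; cpd pre-incubation 2 h, 37° C; ligand 1 h; PFA fix + Hoechst 33342; high-content imaging read-out.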

Setting [1] is: Jurkat-PD-1 cells, PE-labeled PD-L1-Ig 20 nM final; read-out: Jurkat HPD1_PDL1 IC50.

Like-named read-outs stand apart in the source and are kept apart here. Where a SMILES comes first, the peptide text is derived from it. Bridges are numbered along the chain shown (N, C = ends). [ ]: non-standard residue; d: D form. The star is where a group is joined. ξ: configuration not given here. Ala(1H-tetrazol-5-yl) = N[C@@H](Cc1nnn[nH]1)C(=O)O; Phe(4-CONH2) = NC(=O)c1ccc(C[C@H](N)C(=O)O)cc1; Phe(4-COOH) = N[C@@H](Cc1ccc(C(=O)O)cc1)C(=O)O; Bip = N[C@@H](Cc1ccc(-c2ccccc2)cc1)C(=O)O; Phe(3-Me) = Cc1cccc(C[C@H](N)C(=O)O)c1; Gla = N[C@@H](CC(C(=O)O)C(=O)O)C(=O)O; NMehArg = CN[C@@H](CCCCNC(=N)N)C(=O)O; Phe(2-F) = N[C@@H](Cc1ccccc1F)C(=O)O; Val(3-OH) = CC(C)(O)[C@H](N)C(=O)O; 4Pal = N[C@@H](Cc1ccncc1)C(=O)O; Cha = N[C@@H](CC1CCCCC1)C(=O)O; Cit = NC(=O)NCCC[C@H](N)C(=O)O; Gly(cPr) = N[C@H](C(=O)O)C1CC1; Ile(3ξ) = CCC(C)[C@H](N)C(=O)O; Thr(3ξ) = CC(O)[C@H](N)C(=O)O; Ala(CN) = N#CC[C@H](N)C(=O)O; Carboxymethyl = O=C(O)C*; Orn = NCCC[C@H](N)C(=O)O; Pra = C#CC[C@H](N)C(=O)O; Dab = NCC[C@H](N)C(=O)O; Dap = NC[C@H](N)C(=O)O

T1 sequence (Q15116 25-288): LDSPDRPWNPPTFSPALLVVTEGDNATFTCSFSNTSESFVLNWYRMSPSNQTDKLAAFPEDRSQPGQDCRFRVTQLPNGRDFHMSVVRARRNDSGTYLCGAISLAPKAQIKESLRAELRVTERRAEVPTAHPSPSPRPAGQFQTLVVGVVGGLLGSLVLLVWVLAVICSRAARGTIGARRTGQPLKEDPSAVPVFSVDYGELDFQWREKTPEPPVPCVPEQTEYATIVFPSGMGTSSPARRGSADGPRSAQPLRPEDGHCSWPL

Take `CC(C)C[C@H]1NC(=O)[C@H](CCCN)NC(=O)[C@H](CCC(=O)O)NC(=O)[C@H](Cc2ccc(-c3ccccc3)cc2)NC(=O)[C@H](C(C)C)NC(=O)[C@H](Cc2ccc(Cl)c(Cl)c2)NC(=O)[C@H](CC(=O)O)NC(=O)[C@H](Cc2ccc(OCC(=O)O)cc2)NC(=O)[C@H](CN)NC(=O)CSC[C@@H](C(=O)N[C@@H](C)C(N)=O)NC(=O)[C@H]([C@@H](C)O)NC(=O)[C@H](C(C)C)NC(=O)[C@H](CC2CCCCC2)NC(=O)[C@H](CCN)NC1=O` [Compound 2152]: under setting [1], the concentration for half-maximal inhibition (IC50) came to 11.1 nM.
On to `CC(C)C[C@@H]1NC(=O)[C@H](CCN)NC(=O)[C@@H](CC(C)C)NC(=O)[C@H](CCCN)NC(=O)[C@H](CCCNC(N)=O)NC(=O)[C@H](Cc2ccc(-c3ccccc3)cc2)NC(=O)[C@H](C(C)C)NC(=O)[C@H](Cc2c[nH]c3ccccc23)NC(=O)[C@H](CC(=O)O)NC(=O)[C@H](Cc2ccncc2)NC(=O)[C@H](Cc2ccc(OCC(=O)O)cc2)NC(=O)CSC[C@@H](C(=O)N[C@@H](C)C(N)=O)NC(=O)[C@H]([C@@H](C)O)NC(=O)[C@H](C(C)C)NC1=O` [Compound 1323] ({CH2CO}-Y(Carboxymethyl)[4Pal]DWV[Bip][Cit][Orn][dL][Dab]LVTCA-NH2; thioether N-14), for which the IC50 under setting [1] is 29.4 nM.
Regarding `CCC(C)[C@@H]1NC(=O)[C@H](Cc2ccc(-c3ccccc3)cc2)NC(=O)[C@H](CC#N)NC(=O)[C@H](Cc2c[nH]c3ccccc23)NC(=O)[C@H](CC(=O)O)NC(=O)[C@H](Cc2ccc(OCC(=O)O)cc2)NC(=O)[C@H](C(C)O)NC(=O)CSC[C@@H](C(=O)N[C@@H](CC(N)=O)C(=O)O)NC(=O)[C@H](CO)NC(=O)[C@H](C(C)C)NC(=O)[C@H](CC(C)C)NC(=O)[C@H](CCN)NC(=O)[C@@H](CC(C)C)NC(=O)[C@H](CCCN)NC1=O` (stereo partly drawn) [Compound 2579] ({CH2CO}-[Thr(3ξ)]Y(Carboxymethyl)DW[Ala(CN)][Bip][Ile(3ξ)][Orn][dL][Dab]LVSCN-OH; thioether N-14), where the note is “read-out: Jurkat HPD1_PDL1 IC50; Jurkat-PD-1 cells, PE-labeled PD-L1-Ig 20 nM final”, the IC50 was 153 nM.
On to `CC(C)C[C@H]1NC(=O)[C@H](CCCN)NC(=O)[C@H](CCC(=O)O)NC(=O)[C@H](Cc2ccc(-c3ccccc3)cc2)NC(=O)[C@H](C(C)C)NC(=O)[C@H](Cc2c[nH]c3ccccc23)NC(=O)[C@H](CC(=O)O)NC(=O)[C@H](Cc2ccc(OCC(=O)O)cc2)NC(=O)[C@H](CN)NC(=O)CSC[C@@H](C(=O)N[C@@H](C)C(N)=O)NC(=O)[C@H]([C@@H](C)O)NC(=O)[C@H](C(C)C)NC(=O)[C@H](CC2CCCCC2)NC(=O)[C@H](CO)NC1=O` [Compound 1516] ({CH2CO}-[Dap]Y(Carboxymethyl)DWV[Bip]E[Orn][dL]S[Cha]VTCA-NH2; thioether N-14), for which the IC50 under setting [1] turned out to be 30 nM.
Same read-out and setting: with `CC[C@H](C)[C@@H]1NC(=O)[C@H](Cc2ccc(-c3ccccc3)cc2)NC(=O)[C@H](C2CC2)NC(=O)[C@H](Cc2c[nH]c3ccccc23)NC(=O)[C@H](CC(=O)O)NC(=O)[C@H](Cc2ccc(OCC(=O)O)cc2)NC(=O)[C@H](CN)NC(=O)CSC[C@@H](C(=O)N[C@@H](C)C(N)=O)NC(=O)[C@H]([C@@H](C)O)NC(=O)[C@H](C(C)C)NC(=O)[C@H](CC2CCCCC2)NC(=O)[C@H](CCN)NC(=O)[C@@H](CC(C)C)NC(=O)[C@H](CCCN)NC1=O` [Compound 1724] ({CH2CO}-[Dap]Y(Carboxymethyl)DW[Gly(cPr)][Bip]I[Orn][dL][Dab][Cha]VTCA-NH2; thioether N-14) the figure was 17.7 nM; with `Cc1cccc(C[C@@H]2NC(=O)[C@H](CC(=O)O)NC(=O)[C@H](Cc3ccc(OCC(=O)O)cc3)NC(=O)[C@H](C(C)O)NC(=O)CSC[C@@H](C(=O)N[C@H](CC(N)=O)C(N)=O)NC(=O)[C@H](CO)NC(=O)[C@H](C(C)(C)O)NC(=O)[C@H](CC3CCCCC3)NC(=O)[C@H](CCN)NC(=O)[C@@H](CC(C)C)NC(=O)[C@H](CCCN)NC(=O)[C@H](Cc3ccc(O)cc3)NC(=O)[C@H](Cc3ccc(-c4ccccc4)cc3)NC(=O)[C@H](Cc3ccc(C(N)=O)cc3)NC2=O)c1` (stereo partly drawn) [Compound 2658] ({CH2CO}-[Thr(3ξ)]Y(Carboxymethyl)D[Phe(3-Me)][Phe(4-CONH2)][Bip]Y[Orn][dL][Dab][Cha][Val(3-OH)]SC[dN]-NH2; thioether N-14), 25.9 nM; with `CC(C)C[C@@H]1NC(=O)[C@H](CCCCN)NC(=O)[C@@H](CC(C)C)NC(=O)[C@H](CCCN)NC(=O)[C@H](CCCNC(=N)N)NC(=O)[C@H](Cc2ccc(-c3ccccc3)cc2)NC(=O)[C@H](C(C)C)NC(=O)[C@H](Cc2c[nH]c3ccccc23)NC(=O)[C@H](CC(=O)O)NC(=O)[C@H](Cc2ccc(O)cc2)NC(=O)[C@H](CC(N)=O)NC(=O)CSC[C@@H](C(=O)N[C@@H](C)C(N)=O)NC(=O)[C@H]([C@@H](C)O)NC(=O)[C@H](C(C)C)NC1=O` [Compound 1030] ({CH2CO}-NYDWV[Bip]R[Orn][dL]KLVTCA-NH2; thioether N-14), 10.8 nM.
On the same count and under the same terms, with `CC(C)C[C@H]1NC(=O)[C@H](CCCN)NC(=O)[C@H](CCC(=O)O)NC(=O)[C@H](Cc2ccc(-c3ccccc3)cc2)NC(=O)[C@H](C(C)C)NC(=O)[C@H](Cc2ccccc2F)NC(=O)[C@H](CC(=O)O)NC(=O)[C@H](Cc2ccncc2)NC(=O)[C@H](CN)NC(=O)CSC[C@@H](C(=O)N[C@@H](C)C(N)=O)NC(=O)[C@H]([C@@H](C)O)NC(=O)[C@H](C(C)C)NC(=O)[C@H](CC2CCCCC2)NC(=O)[C@H](CCN)NC1=O` [Compound 2209] ({CH2CO}-[Dap][4Pal]D[Phe(2-F)]V[Bip]E[Orn][dL][Dab][Cha]VTCA-NH2; thioether N-14) the figure was 29.7 nM; with `CC(C)C[C@H]1NC(=O)[C@H](CCCN)NC(=O)[C@H](C(C)C)NC(=O)[C@H](Cc2ccc(-c3ccccc3)cc2)NC(=O)[C@H](C(C)C)NC(=O)[C@H](Cc2c[nH]c3ccccc23)NC(=O)[C@H](CC(=O)O)NC(=O)[C@H](Cc2ccc(OCC(=O)O)cc2)NC(=O)[C@H](CCCCNC(=N)N)N(C)C(=O)CSC[C@@H](C(=O)N[C@@H](C)C(N)=O)NC(=O)[C@H](CO)NC(=O)[C@H](C(C)C)NC(=O)[C@H](CC2CCCCC2)NC(=O)[C@H](CCN)NC1=O` [Compound 2513] ({CH2CO}-[NMehArg]Y(Carboxymethyl)DWV[Bip]V[Orn][dL][Dab][Cha]VSCA-NH2; thioether N-14), 18 nM.
On the same count and under the same terms, with `CC(C)C[C@H]1NC(=O)[C@H](CCCN)NC(=O)[C@H](CCCNC(N)=O)NC(=O)[C@H](Cc2ccc(-c3ccccc3)cc2)NC(=O)[C@H](C(C)C)NC(=O)[C@H](Cc2c[nH]c3ccccc23)NC(=O)[C@H](Cc2nn[nH]n2)NC(=O)[C@H](Cc2ccc(OCC(=O)O)cc2)NC(=O)[C@H](CN)NC(=O)CSC[C@@H](C(=O)N[C@@H](C)C(N)=O)NC(=O)[C@H]([C@@H](C)O)NC(=O)[C@H](C(C)C)NC(=O)[C@H](CC2CCCCC2)NC(=O)[C@H](CCN)NC1=O` [Compound 1328] ({CH2CO}-[Dap]Y(Carboxymethyl)[Ala(1H-tetrazol-5-yl)]WV[Bip][Cit][Orn][dL][Dab][Cha]VTCA-NH2; thioether N-14) the figure was 34.5 nM.
As for `CC(C)C[C@H]1NC(=O)[C@H](CCCN)NC(=O)[C@H](CCCNC(N)=O)NC(=O)[C@H](Cc2ccc(-c3ccccc3)cc2)NC(=O)[C@H](C(C)C)NC(=O)[C@H](Cc2c[nH]c3ccccc23)NC(=O)[C@H](CC(=O)O)NC(=O)[C@H](CC(C(=O)O)C(=O)O)NC(=O)[C@H](CN)NC(=O)CSC[C@@H](C(=O)N[C@@H](C)C(N)=O)NC(=O)[C@H]([C@@H](C)O)NC(=O)[C@H](C(C)C)NC(=O)[C@H](CC2CCCCC2)NC(=O)[C@H](CCN)NC1=O` [Compound 2134] ({CH2CO}-[Dap][Gla]DWV[Bip][Cit][Orn][dL][Dab][Cha]VTCA-NH2; thioether N-14), the IC50 under setting [1] was found to be 365 nM.
On the same count and under the same terms, with `CC(C)C[C@@H]1NC(=O)[C@H](CCCCN)NC(=O)[C@@H](CC(C)C)NC(=O)[C@H](CCCN)NC(=O)[C@H](C(C)C)NC(=O)[C@H](Cc2ccc(-c3ccccc3)cc2)NC(=O)[C@H](C(C)C)NC(=O)[C@H](Cc2c[nH]c3ccccc23)NC(=O)[C@H](CC(=O)O)NC(=O)[C@H](Cc2ccc(O)cc2)NC(=O)[C@H](CC(N)=O)NC(=O)CSC[C@@H](C(=O)N[C@@H](C)C(N)=O)NC(=O)[C@H]([C@@H](C)O)NC(=O)[C@H](C(C)C)NC1=O` [Compound 1130] ({CH2CO}-NYDWV[Bip]V[Orn][dL]KLVTCA-NH2; thioether N-14) the figure was 19.5 nM; with `C#CC[C@H](NC(=O)[C@H](CCN)NC(=O)[C@@H]1CSCC(=O)N[C@@H](CCN)C(=O)N[C@@H](Cc2ccc(C(=O)O)cc2)C(=O)N[C@@H](CC(=O)O)C(=O)N[C@@H](Cc2cccc(C)c2)C(=O)N[C@@H](Cc2ccc(C(=O)O)cc2)C(=O)N[C@@H](Cc2ccc(-c3ccccc3)cc2)C(=O)N[C@@H](Cc2ccc(C(=O)O)cc2)C(=O)N[C@@H](CCCN)C(=O)N[C@H](CC(C)C)C(=O)N[C@@H](CCN)C(=O)N[C@@H](CC2CCCCC2)C(=O)N[C@@H](C(C)(C)O)C(=O)N[C@@H](Cc2cnc[nH]2)C(=O)N1)C(N)=O` [Compound 1849] ({CH2CO}-[Dab][Phe(4-COOH)]D[Phe(3-Me)][Phe(4-COOH)][Bip][Phe(4-COOH)][Orn][dL][Dab][Cha][Val(3-OH)]HC[Dab][Pra]-NH2; thioether N-14), 7.8 nM.
Same read-out and setting: with `C#CC[C@H](NC(=O)[C@H](CCN)NC(=O)[C@@H]1CSCC(=O)N[C@@H]([C@@H](C)O)C(=O)N[C@@H](Cc2ccc(OCC(=O)O)cc2)C(=O)N[C@@H](CC(=O)O)C(=O)N[C@@H](Cc2cccc(C)c2)C(=O)N[C@@H](Cc2ccc(C(=O)O)cc2)C(=O)N[C@@H](Cc2ccc(-c3ccccc3)cc2)C(=O)N[C@@H](Cc2ccc(C(=O)O)cc2)C(=O)N[C@@H](CCCN)C(=O)N[C@H](CC(C)C)C(=O)N[C@@H](CCN)C(=O)N[C@@H](CC2CCCCC2)C(=O)N[C@@H](C(C)C)C(=O)N[C@@H](CCC(=O)O)C(=O)N1)C(=O)O` [Compound 1824] ({CH2CO}-TY(Carboxymethyl)D[Phe(3-Me)][Phe(4-COOH)][Bip][Phe(4-COOH)][Orn][dL][Dab][Cha]VEC[Dab][Pra]-OH; thioether N-14) the figure was 9.3 nM.

Broadly, the IC50 is the concentration that gives 50% inhibition.
